Test results taken from patent US12390435B2, “Electrophiles and electrophile pro-drugs as RAD51 inhibitors” (University of Pittsburgh—Of the Commonwealth System of …, priority 2018, dated 2025).

Assays:
Format in all cases: cell-based
[1] = tested on: MDA-MB-231 and MDA-MB-468 cells; experiment: Boyden chamber cell migration; settings: 5 μM
Protocol: MDA-MB-231 and MDA-MB-468 cells were subjected to cell migration analysis in Boyden chambers. The bottom of a 12-well membrane filter (BD Biosciences) was coated with 10 μg/mL fibronectin for 12 hr before each experiment. […] Cells were trypsinized and washed with migration media (DMEM containing 0.1% fatty acid-free BSA) to remove serum. Cells at a density of 10^5/well were then placed in the upper chamber with migration media containing the same pretreatment conditions. The cells were allowed to migrate towards the 5% FBS chemoattractant for 5 hr. Non-migrated cells from the top surface were removed with cotton swabs. Migrated cells were fixed with 4% paraformaldehyde (Electron Microscopy Sciences), then stained with 0.5% crystal violet (Sigma-Aldrich) for 15 min. Migrated cell density on the filters was observed by microscopy. The crystal violet on migrated cells was de-stained with 10% acetic acid, and the absorbance in individual filters was determined at […] nm. Images are representative of three individual experiments, and statistical comparison among treatments was determined by one-way analysis of variance followed by Tukey post-test.

[2] = tested on: MDA-MB-231 and MDA-MB-468 cells; experiment: Western blot of cell cycle and apoptosis proteins; settings: 5 μM, 24 hr
Protocol: (§1) Western blotting was performed. 20-60 μg of total lysates per lane were loaded on 7%, 10%, or 12% SDS-PAGE and transferred onto nitrocellulose or polyvinylidene difluoride membranes (Bio-Rad). The membranes were probed with primary antibodies against caspase-3, multi-drug resistance protein-1 (MRP1), poly [ADP ribose] polymerase-1 (PARP-1), ubiquitin, RelA; cyclin D1, p21, caspase-9, MRP4, IKKβ, pIKKβ, IκBα, or pIκBα (Cell Signaling); caspase-8 (R&D Systems). Samples were normalized to β-actin (Sigma-Aldrich) or GAPDH (Trevigen).

[3] = tested on: MCF-10A cells; experiment: Western blot of cell cycle and apoptosis proteins; settings: 5 μM, 24 hr
Protocol: as §1

[4] = tested on: IKKβ; experiment: TNFα-induced IKKβ phosphorylation, IκBα phosphorylation and degradation
Protocol: All studies used two TNBC cell lines, MDA-MB-231 and MDA-MB-468. […] For IκBα degradation, cells were treated as described above and stimulated with 20 ng/mL TNFα for 10 min.
as §1

[5] = tested on: Hs578T cells; experiment: CellTiter-Glo relative growth (luminescent ATP)
Protocol: (§2) HEK 293T, MDA-MB-231, MDA-MB-468, Hs578T and BT-549 cells (American Type Culture Collection) were cultured at 37° C. with 5% CO2 in Dulbecco's modified Eagle's medium containing (DMEM) (Gibco) supplemented with 5% FBS (HyClone), 100 units/ml penicillin, […] streptomycin (Gibco), non-essential amino acids (Gibco) and 2 mM 1-glutamine (Gibco). Doxorubicin (Selleckchem), cisplatin (Sigma) or olaparib (Selleckchem) were dissolved in DMSO or DMF (cisplatin). […] Pure NO2-OA was diluted in DMSO and added to cells after solvation in assay media. Relative cell numbers were compared by measuring the luminescent signal generated by ATP using the CellTiter-Glo (Promega) assay. Cells were plated in a 96-well plate at 5,000 (MDA-MB-231) or 6,600 (BT549 or Hs578T) cells per well.
(§3) Data represent the mean±SEM from 3 independent experiments unless otherwise noted. A p value<0.05 was considered statistically significant. Non-linear curves were generated in GraphPad Prism 7.0 (GraphPad Software, La Jolla, CA, USA) for statistical analysis. EC50 values and standard error were calculated from three independent experiments utilizing a non-linear dose response variable slope model. Significance was tested by one-way ANOVA for multiple groups with Tukey posttest or by t-test when groups were less than three. RAD51 foci number was analyzed with ImageJ. Nuclear boundaries were individually identified in more than 50 cells per treatment group in three independent experiments.
(§4) The growth of BT-549 cells was not affected. […] MDA-MB-231 cells were plated in a 96 well plate and treated with talazoparib (0.01-75 μM) plus OA-NO2 or NDA-NO2 (0.2-12 μM) daily for 3 days. Growth inhibition (relative cell numbers) of MDA-MB-231 cells was determined by luminescent detection of ATP (CellTiter-Glo) (FIG. 1K).

[6] = tested on: BT-549 cells; experiment: CellTiter-Glo relative growth (luminescent ATP)
Protocol: as §2, §3, §4

[7] = tested on: NHEJ (EJ5-GFP, U2OS cells); experiment: EJ5-GFP NHEJ reporter assay in U2OS cells; settings: 5 μM, 48 h flow cytometry or 68 h live-cell microscopy
Protocol: Measurements of NHEJ, HR, Alt-EJ and SSA assays were performed as previously described. HR activity was measured by counting GFP-positive cells by flow cytometry at the MWRI flow cytometry core using a BD LSRII (BD Biosciences). RAD51 overexpressing cells were generated by stable transfection of pLVX RAD51 IRES Neo and selection with geneticin (Invitrogen).
U2OS cells were prepared as above, but 5 h following compound treatment, cells were transferred into the Incucyte Zoom (Essen) live-cell imaging automated fluorescence microscope at 37° C. with 5% CO2. Cell confluence and green object count per mm2 were determined using Incucyte Zoom software. […]
NO2-OA-dependent effects on HR DNA repair were further investigated by utilizing a DRGFP reporter assay. This analysis quantifies intracellular recombination of an integrated cDNA cassette of two tandem non-fluorescent GFP constructs following introduction of an I-SceI cleavage to the system by measuring the fluorescent GFP protein that is produced following successful recombination. […] A novel strategy was used to measure the kinetics of changes in HR in live cells by using automated fluorescence microscopy to track the emergence of GFP positive cells over time in monolayers, as opposed to making static measurements of detached cells using flow cytometry. […]

[8] = tested on: MDA-MB-231 and MDA-MB-468 cells; experiment: MTT viability / cytotoxicity
[9] = doxorubicin 72 h plus daily 2 μM NO2-OA
[10] = olaparib 72 h plus daily 2 μM NO2-OA

In the case of CCCCCCCCC(=CCCCCCCCC(=O)O)[N+](=O)[O-] [NO2-OA, 10-nitro-octadec-9-enoic acid], the “basal, non-stimulated migration” value [1] is reported as “modestly inhibited”, the TNFα-induced cell migration ([1]; TNFα 20 ng/mL) is reported as “significantly inhibited” and the PARP-1 cleavage [2] is reported as “promoted caspase-3-mediated cleavage of PARP-1”. The “caspase-8 and caspase-9 cleavage” value [2] was “increased cleavage of caspase-8 and caspase-9”, the “p21 and cyclin D1 protein expression” value [2] was “an increase in p21 and a decrease in cyclin D1 protein expression” and the PARP-1 cleavage [3] was “but not in MCF-10A cells”. The “TNFα-induced IKKβ phosphorylation” value ([4]; NO2-OA 5 μM or BAY11-7082 10 μM 2 hr, TNFα 20 ng/mL 5 min) was “diminished”, the “degradation of IκBα following TNFα stimulation” value ([4]; TNFα 20 ng/mL, 10 min) was “inhibited the degradation of IκBβ” and the IκBα phosphorylation ([4]; with proteasome inhibitor MG-132 10 μM) was “decreased IκBβ phosphorylation”. For the same compound, the EC50 ([5]; Homo sapiens, Hs-578T, 72 h, read-out: EC50 for growth inhibition) was 1980 ± 520 nM, the “increased growth inhibition of cisplatin” value ([5]; cisplatin 72 h plus daily 2 μM NO2-OA) was 3 fold and the “enhanced growth inhibition of doxorubicin” value [5, 9] was 5 fold. For the same compound, the “enhanced growth inhibition of olaparib” value [5, 10] was 17 fold, the EC50 ([6]; Homo sapiens, BT-549, 72 h, read-out: EC50 for growth inhibition) was 3780 ± 480 nM and the “growth inhibition with cisplatin, suppressed” value ([6]; cisplatin 72 h plus daily 2 μM NO2-OA, printed as suppressed) was 1.4 fold. For the same compound, the “enhanced growth inhibition of doxorubicin” value [6, 9] was “not affected”, the “enhanced growth inhibition of olaparib” value [6, 10] was 3 fold and the “effect on NHEJ (GFP positive cells)” value [7] was “no effect”. For the same compound, the “cell viability (MTT)” value [8] was “significantly reduced the viability” and the cytotoxicity ([8]; 5 μM, up to 24 hr, any cell line) was “No cytotoxicity was detectable”.
